For series [1], the target named is T1, human S1P1 receptor (Homo sapiens, UniProt P21453).
T1 construct: expressed in transfected cells; membranes
The experiment in a line: S1P1 GTPγS assay. The series is classed as biochemical. The settings on record: [35S]-GTPγS SPA, membranes of rat hepatoma cells expressing human S1P1, agonist. The procedure: (§1) For membrane preparations all steps were performed at 4° C. Rat hepatoma cells stably expressing the human S1P1 receptor or Rat Basophilic Leukaemia cells (RBL) stably expressing human S1P3 receptor were grown to 80% confluency before being harvested into 10 ml Phospho-Buffered Saline (PBS) and centrifuged at 1200 rpm for 5 minutes. After removal of the supernatant, the pellet was re-suspended and cells were homogenised within a glass Waring blender for 2 bursts of 15 secs in 200 mls of buffer (50 mM HEPES, 1 mM leupeptin, 25 μg/ml bacitracin, 1 mM EDTA, 1 mM PMSF, 2 μM pepstatin A). The blender was plunged into ice for 5 mins after the first burst and 10-40 mins after the final burst to allow foam to dissipate. The material was then spun at 500 g for 20 mins and the supernatant spun for 36 mins at 48,000 g. The pellet was resuspended in the same buffer as above but without PMSF and pepstatin A. The material was then forced through a 0.6 mm needle, made up to the required volume, (usually ×4 the volume of the original cell pellet), aliquoted and stored frozen at −80° C.
as §1, with “All” for “For membrane preparations all”, “Cells” for “Rat hepatoma cells stably expressing the human S1P1 receptor or Rat Basophilic Leukaemia cells (RBL) stably expressing human S1P3 receptor were grown to 80% confluency before being harvested into 10 ml Phospho-Buffered Saline (PBS) and centrifuged at 1200 rpm for 5 minutes. After removal of the supernatant, the pellet was re-suspended and cells”
Human S1P1 rat hepatoma membranes (1.5 μg/well) were adhered to a wheatgerm agglutinin (WGA)-coated scintillation proximity assay (SPA) beads (0.125 mg/well) in assay buffer (HEPES 20 mM, MgCl2 10 mM, NaCl 100 mM and pH adjusted to 7.4 using KOH 5 M, GDP 10 μM FAC (final assay concentration) and saponin 90 μg/ml FAC was also added).
After 30 minutes pre-coupling on ice the bead and membrane suspension was dispensed into a white Greiner polypropylene LV384-well plate ([…]), containing 0.1 μl of the compound. […] [^35S]-GTPγS (0.5 nM final radioligand conc) made up in assay buffer was then added to agonist plates. The final assay cocktail (10.1 μl) was then centrifuged at 1000 rpm for 5 minutes then read immediately on a Viewlux reader.
All test compounds were dissolved in DMSO at a concentration of 10 mM and were prepared in 100% DMSO using a 1 in 4 dilution step to provide 11 point dose response curves. The dilutions were transferred to the assay plates ensuring that the DMSO concentration was constant across the plate for all assays.
All data was normalized to the mean of 16 high and 16 low control wells on each plate. A four parameter curve fit was then applied.
S1P1 expressing RH7777 membranes (1.5 μg/well) […] were homogenised by passing through a 23G needle. These were then adhered to WGA-coated SPA beads (0.125 mg/well) in assay buffer (HEPES 20 mM, MgCl2 10 mM, NaCl 100 mM and pH adjusted to 7.4 using KOH 5M). GDP […] FAC and saponin 90 μg/ml FAC were also added.
After 30 minutes precoupling on ice, the bead and membrane suspension was dispensed into white Greiner polypropylene LV 384-well plates (5 μl/well), containing 0.1 μl of compound. 5 μl/well [^35S]-GTPγS (0.5 nM for S1P1 or 0.3 nM for S1P3 final radioligand concentration) made in assay buffer was then added to the plates. The final assay cocktail (10.1 μl) was then sealed, spun on a centrifuge, then read immediately on a Viewlux instrument.

The subject of series [2] is circulating lymphocytes. The settings on record: animals and man, literature; cited from earlier work.
The conditions of series [3]: clinical studies, first 24 hours of treatment, literature; cited from earlier work.

The structures appear in SMILES notation. pEC50: −log10 of the molar value. Structures can show the parent of a compound that is named as a salt. A value given as a limit tells only on which side of the number the result lay.

T1 sequence (P21453 whole entry): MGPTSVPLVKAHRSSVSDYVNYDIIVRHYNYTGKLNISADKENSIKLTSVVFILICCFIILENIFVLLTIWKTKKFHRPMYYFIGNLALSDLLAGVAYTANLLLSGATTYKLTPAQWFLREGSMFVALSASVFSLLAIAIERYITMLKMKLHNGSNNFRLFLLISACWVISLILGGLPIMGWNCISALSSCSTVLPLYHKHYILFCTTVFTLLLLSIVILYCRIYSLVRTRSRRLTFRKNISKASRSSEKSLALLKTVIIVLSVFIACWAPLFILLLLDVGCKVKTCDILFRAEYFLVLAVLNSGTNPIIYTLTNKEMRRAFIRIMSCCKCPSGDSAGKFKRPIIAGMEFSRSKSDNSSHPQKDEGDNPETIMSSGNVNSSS

One may read the pEC50 as the negative decadic logarithm of the EC50, by convention in mol/L. Low readings indicate a large EC50, high ones a small EC50. `CC(C)Oc1ccc(-c2nc(-c3cccc4c3CCNC4)no2)cc1C#N` [Example 3, 2-[(1-methylethyl)oxy]-5-[3-(1,2,3,4-tetrahydro-5-isoquinolinyl)-1,2,4-oxadiazol-5-yl]benzonitrile] showed a pEC50 in series [1] of over 7.00.

In series [1], `CC(C)Oc1ccc(-c2nc(-c3cccc4c3CCNC4)no2)cc1C#N` [Example 2, 2-[(1-methylethyl)oxy]-5-[3-(1,2,3,4-tetrahydro-5-isoquinolinyl)-1,2,4-oxadiazol-5-yl]benzonitrile hydrochloride] gave a pEC50 of over 8.00.

`Cc1c(-c2noc(-c3ccc(OC(C)C)c(Cl)c3)n2)ccc2c1CCN(CCC(=O)O)C2` [Example 8, 3-[6-(5-{3-Chloro-4-[(1-methylethyl)oxy]phenyl}-1,2,4-oxadiazol-3-yl)-5-methyl-3,4-dihydro-2(1H)-isoquinolinyl]propanoic acid] had a pEC50 in series [1] of over 8.00.

For the compound `CCCCCCCCc1ccc(CCC(N)(CO)CO)cc1` [FTY720], in series [2], the “effect on circulating lymphocytes” value was “reduce circulating lymphocytes in animals and man”. Besides, in series [3], the bradycardia entry was “results in bradycardia in the first 24 hours of treatment”.

For the compound `CC(C)Oc1ccc(-c2nc(-c3cccc4c3CCN(CCCC(=O)O)C4)no2)cc1C#N` [Example 6, 4-[5-(5-{3-cyano-4-[(1-methylethyl)oxy]phenyl}-1,2,4-oxadiazol-3-yl)-3,4-dihydro-2(1H)-isoquinolinyl]butanoic acid hydrochloride], in series [1], the pEC50 is over 8.00.

In series [1], `CC(C)Oc1ccc(-c2nc(-c3cccc4c3CCN(CC(=O)O)C4)no2)cc1C#N` [Example 4, [5-(5-{3-cyano-4-[(1-methylethyl)oxy]phenyl}-1,2,4-oxadiazol-3-yl)-3,4-dihydro-2(1H)-isoquinolinyl]acetic acid hydrochloride] showed a negative-log EC50 (pEC50) of over 8.00.

`Cc1c(-c2noc(-c3ccc(OC(C)C)c(Cl)c3)n2)ccc2c1CCN(CC(=O)O)C2` [Example 9, [6-(5-{3-Chloro-4-[(1-methylethyl)oxy]phenyl}-1,2,4-oxadiazol-3-yl)-5-methyl-3,4-dihydro-2(1H)-isoquinolinyl]acetic acid]: the pEC50 in series [1] is over 7.00.

With `CC(C)Oc1ccc(-c2nc(-c3cccc4c3CCN(C)C4)no2)cc1C#N` [Example 7, 2-[(1-methylethyl)oxy]-5-[3-(2-methyl-1,2,3,4-tetrahydro-5-isoquinolinyl)-1,2,4-oxadiazol-5-yl]benzonitrile], the pEC50 in series [1] is over 7.00.

The compound `Cc1c(-c2noc(-c3ccc(OC(C)C)c(C#N)c3)n2)ccc2c1CCN(CCC(=O)O)C2` [Example 13, 3-[6-(5-{3-Cyano-4-[(1-methylethyl)oxy]phenyl}-1,2,4-oxadiazol-3-yl)-5-methyl-3,4-dihydro-2(1H)-isoquinolinyl]propanoic acid sodium salt] showed a pEC50 in series [1] of over 7.00.

`CC(C)Oc1ccc(-c2nc(-c3cccc4c3CCN(CCC(=O)O)C4)no2)cc1C#N` [Example 5, 3-[5-(5-{3-cyano-4-[(1-methylethyl)oxy]phenyl}-1,2,4-oxadiazol-3-yl)-3,4-dihydro-2(1H)-isoquinolinyl]propanoic acid hydrochloride] showed a negative-log EC50 (pEC50) in series [1] of over 7.00.

On to `Cc1c(-c2noc(-c3ccc(OC(C)C)c(C#N)c3)n2)ccc2c1CCNC2` [Example 11, 2-[(1-Methylethyl)oxy]-5-[3-(5-methyl-1,2,3,4-tetrahydro-6-isoquinolinyl)-1,2,4-oxadiazol-5-yl]benzonitrile trifluoroacetic acid salt], for which the pEC50 in series [1] is over 7.00.

Turning to `CC(C)Oc1ccc(-c2nc(-c3cccc4c3CCNC4)no2)cc1Cl` [Example 1, 5-(5-{3-chloro-4-[(1-methylethyl)oxy]phenyl}-1,2,4-oxadiazol-3-yl)-1,2,3,4-tetrahydroisoquinoline hydrochloride], the pEC50 in series [1] was over 7.00.

In series [1], `Cc1c(-c2noc(-c3ccc(OC(C)C)c(C#N)c3)n2)ccc2c1CCN(CC(=O)O)C2` [Example 12, [6-(5-{3-Cyano-4-[(1-methylethyl)oxy]phenyl}-1,2,4-oxadiazol-3-yl)-5-methyl-3,4-dihydro-2(1H)-isoquinolinyl]acetic acid] had a pEC50 of over 7.00.

The values are drawn from patent US20100152235A1, “OXADIAZOLE DERIVATIVES ACTIVE ON SPHINGOSINE-1-PHOSPHATE (S1P)” (priority 2007, published 2010).
